Where two headings read alike, the source gives them in different places.
Key:
[1] = system: MiaPaCa-2; experiment: Proliferation assay (CellTiter Glo); type: cell-based; conditions: 96 hours; for EC50: Homo sapiens, MIA PaCa-2
[2] = system: phospho-PKC (pan); experiment: Western blot analysis of PKC signaling pathway elements in A549 cells; type: cell-based; conditions: 48 hours, K103, K102 at 0.5 μM, K101A at […]
Procedure: (§1) Cancer cells (2-8 million cells) were seeded in 10 cm dishes and grown overnight. For A549 lung cancer cell line, about 3 million cells were seeded. Cells were then treated with different drugs at concentrations described in Table 8 for a period of time up to 48 hours. Cells were lysed in 0.3-0.5 mL of RIPA buffer (Sigma) supplemented with protease inhibitors (Roche) and phosphatase inhibitors (Sigma). Lysates were assayed for protein concentration using BCA kit (Pierce). Normalized amount of lysates (20-30 μg protein/lane) were run on 4-12% NuPage gel (Life Technologies) and the proteins were transferred to the PVDF or nitrocellulose membrane using iBlot® Transfer Stack (Life Technologies). The membranes were probed with primary antibodies shown in Table 9 at 4° C. overnight after blocking with 1×TBST containing 5% non-fat milk. Antibodies from other vendors could also be used in Western blot analysis. After washing 5 times with 1×TBS containing 0.1% Tween20, the membranes were probed with 2nd antibodies Anti-mouse IgG Dylight 800 conjugate or Anti-rabbit IgG DyLight 680 conjugate (1:10000; Cell signaling or similar IR 2nd antibodies from different vendors) at room temperature for one hour. After washing 5 times, the membranes were scanned using Odyssey® Imaging System (Licor Biosciences).

[3] = system: leukemia inhibitory factor (LIF); experiment: as above; type: cell-based; conditions: Western blot, concentrations of Table 8 (K101A 0.1, 0.5, […]; K101E […]; K102 0.1, 0.5 μM; K103 0.01 μM; Ref1 1 μM; Ref2 0.01 μM)
Procedure: as §1

[4] = system: HL60; experiment: Proliferation assay (CellTiter Glo); type: cell-based, human; conditions: 96 hours
Procedure: (§2) The dose range for most compounds was 4.6 nM-30 μM. The dose ranges for some compounds were adjusted downward to 0.46 nM-3 μM or 0.08 nM-0.5 μM or 0.03 nM-0.2 μM. […] The results are shown in Tables 3-6 for pancreatic cancer, lung cancer, colon/gastric cancer, and leukemia.

[5] = system: THP1; experiment: Proliferation assay (CellTiter Glo); type: cell-based, human; conditions: 96 hours
Procedure: as §2

[6] = system: Pan2.13; experiment: Proliferation assay (CellTiter Glo); type: cell-based; conditions: 96 hours
Procedure: as §2

[7] = system: A549; experiment: Proliferation assay (CellTiter Glo); type: cell-based; conditions: 96 hours
Procedure: as §2

[8] = system: SW620; experiment: Proliferation assay (CellTiter Glo); type: cell-based; conditions: 96 hours
Procedure: as §2

[9] = system: HCT116; experiment: Proliferation assay (CellTiter Glo); type: cell-based; conditions: 96 hours; for EC50: Homo sapiens, HCT-116
Procedure: as §2

[10] = system: H441; experiment: Proliferation assay (CellTiter Glo); type: cell-based; conditions: 96 hours; for EC50: Homo sapiens, NCI-H441
Procedure: as §2

[11] = system: AsPC-1; experiment: Proliferation assay (CellTiter Glo); type: cell-based; conditions: 96 hours; for EC50: Homo sapiens, ASPC1
Procedure: as §2

[12] = system: Capan-1; experiment: Proliferation assay (CellTiter Glo); type: cell-based; conditions: 96 hours
Procedure: as §2

[13] = system: CCRF-CEM; experiment: Proliferation assay (CellTiter Glo); type: cell-based; conditions: 96 hours; for EC50: Homo sapiens
Procedure: as §2

[14] = system: H727; experiment: Proliferation assay (CellTiter Glo); type: cell-based; conditions: 96 hours; for EC50: Homo sapiens, NCI-H727
Procedure: as §2

[15] = system: H358; experiment: Proliferation assay (CellTiter Glo); type: cell-based; conditions: HE58, 96 hours; for EC50: Homo sapiens, NCI-H358
Procedure: as §2

[16] = system: Pan2.03; experiment: Proliferation assay (CellTiter Glo); type: cell-based; conditions: 96 hours
Procedure: as §2

[17] = system: LS180; experiment: Proliferation assay (CellTiter Glo); type: cell-based; conditions: 96 hours
Procedure: as §2

[18] = system: AGS; experiment: Proliferation assay (CellTiter Glo); type: cell-based; conditions: 96 hours; for EC50: Homo sapiens
Procedure: as §2

[19] = system: KP-4; experiment: Proliferation assay (CellTiter Glo); type: cell-based; conditions: 96 hours
Procedure: as §2

`CCCCCCCCCCCCCC(=O)O[C@@H]1[C@@H](C)[C@@]2(O)[C@@H](C=C(CO)C[C@]3(O)C(=O)C(C)=C[C@@H]23)[C@@H]2C(C)(C)[C@]12OC(C)=O` [Compound K103, 12-O-Tetradecanoylphorbol-13-acetate] was tested, and the EC50 ([1]; MiaPaCa-2 (K-RAS: G12C), absolute EC50, read-out: Ab EC50) was 0.28 nM, the EC50 ([1]; MiaPaCa-2, relative EC50, read-out: Re EC50) was 0.24 nM and the “Top Inhibition %” value ([1]; MiaPaCa-2, % of top inhibition) was 81.1%. For the same compound, the “phospho-PKC (pan) levels” value [2] was “reduction”, the “protein levels of the leukemia inhibitory factor (LIF)” value [3] was “did not affect” and the “Top Inhibition %” value ([4]; HL60, % of top inhibition) was 60.0%. For the same compound, the EC50 ([4]; Homo sapiens, HL-60, HL60 (N-RAS: Q61L), absolute EC50, read-out: Ab EC50) was under 4.6 nM, the EC50 ([5]; Homo sapiens, THP-1, THP1 (N-RAS: G12D), absolute EC50, read-out: Ab EC50) was under 4.6 nM and the “Top Inhibition %” value ([5]; THP1, % of top inhibition) was 52.9%. The EC50 ([6]; Pan2.13 (K-RAS: Q61H), absolute EC50, read-out: Ab EC50) was over 500 nM, the “Top Inhibition %” value ([6]; Pan2.13, % of top inhibition) was 41.9% and the EC50 ([6]; Pan2.13, relative EC50, read-out: Re EC50) was 0.66 nM. The “Top Inhibition %” value ([7]; A549, % of top inhibition) was 80.6%, the EC50 ([7]; Homo sapiens, A549 (K-RAS: G12S), absolute EC50, read-out: Ab EC50) was under 4.6 nM and the EC50 ([8]; Homo sapiens, SW-620, SW620 (K-RAS: G12V), absolute EC50, read-out: Ab EC50) was over 10000 nM. For the same compound, the “Top Inhibition %” value ([8]; SW620, % of top inhibition) was 1.2%, the “Top Inhibition %” value ([9]; HCT116, % of top inhibition) was 21.4% and the EC50 ([9]; HCT116 (K-RAS: G13D), absolute EC50, read-out: Ab EC50) was over 500 nM. The EC50 ([9]; HCT116, relative EC50, read-out: Re EC50) was 1.2 nM, the “Top Inhibition %” value ([10]; H441, % of top inhibition) was 46.7% and the EC50 ([10]; H441 (K-RAS: G12V), absolute EC50, read-out: Ab EC50) was over 500 nM. For the same compound, the EC50 ([10]; H441, relative EC50, read-out: Re EC50) was 0.75 nM, the “Top Inhibition %” value ([11]; AsPC-1, % of top inhibition) was 32.7% and the EC50 ([11]; AsPC-1 (K-RAS: G12D), absolute EC50, read-out: Ab EC50) was over 500 nM. For the same compound, the EC50 ([11]; AsPC-1, relative EC50, read-out: Re EC50) was 1.3 nM, the “Top Inhibition %” value ([12]; Capan-1, % of top inhibition) was 51.0% and the EC50 ([12]; Homo sapiens, Capan-1 (K-RAS: G12V), absolute EC50, read-out: Ab EC50) was 14 nM. The “Top Inhibition %” value ([13]; CCRF-CEM, % of top inhibition) was 37.7%, the EC50 ([13]; CCRF-CEM (K-RAS: G12D), absolute EC50, read-out: Ab EC50) was over 500 nM and the EC50 ([13]; CCRF-CEM, relative EC50, read-out: Re EC50) was 0.24 nM. The “Top Inhibition %” value ([14]; H727, % of top inhibition) was 57.4%, the EC50 ([14]; H727 (K-RAS: G12V), absolute EC50, read-out: Ab EC50) was 2.2 nM and the EC50 ([14]; H727, relative EC50, read-out: Re EC50) was 0.37 nM. The “Top Inhibition %” value ([15]; % of top inhibition) was 59.6%, the EC50 ([15]; absolute EC50, read-out: Ab EC50) was 2.2 nM and the EC50 ([15]; relative EC50, read-out: Re EC50) was 0.4 nM. For the same compound, the EC50 ([16]; Pan2.03 (K-RAS: G12D), absolute EC50, read-out: Ab EC50) was over 500 nM, the “Top Inhibition %” value ([16]; Pan2.03, % of top inhibition) was 32.2% and the EC50 ([16]; Pan2.03, relative EC50, read-out: Re EC50) was 0.9 nM. The EC50 ([17]; Homo sapiens, LS180 (K-RAS: G12D), absolute EC50, read-out: Ab EC50) was over 10000 nM, the “Top Inhibition %” value ([17]; LS180, % of top inhibition) was 14.7% and the “Top Inhibition %” value ([18]; AGS, % of top inhibition) was 47.2%. It also gave an EC50 ([18]; AGS (gastric, K-RAS: G12D), absolute EC50, read-out: Ab EC50) of over 500 nM, an EC50 ([18]; AGS, relative EC50, read-out: Re EC50) of 1.1 nM and an EC50 ([19]; Homo sapiens, KP-4 (K-RAS: G12C), absolute EC50, read-out: Ab EC50) of under 4.6 nM. The “Top Inhibition %” value ([19]; KP-4, % of top inhibition) was 70.3%.
